From patent US5763470A, “Benzopyran compounds and methods for their use” (Sugen Inc., priority 1995, dated 1998)

Columns and labels:
Format in all cases: cell-based
MCF7 cells = experiment: MCF-7 SRB Growth Assay; details: Homo sapiens, MCF7, 96 h; 10% FBS; 4 days; read-out: Cell Growth Assays, MCF7 10% FBS
Protocol: Assay 1: MCF-7 RB Growth Assay. MCF-7 cells are seeded at 2000 cells/well in a 96-well flat bottom plate in normal growth media, which was 10% FBS/RPMI supplemented with 2 mM Glutamine. The plate of cells is incubated for about 24 hours at 37° C. after which it receives an equal volume of compound dilution per well making the total volume per well 200 μl. The compound is prepared at 2 times the desired highest final concentration and serially diluted in the normal growth media in a 96-well round bottom plate and then transferred to plate of cells. DMSO serves as the vector control up to 0.2% as final concentration. The cells are then incubated at 37° C. in a humidified 5% CO2 incubator. Four days following dosing of compound, the media is 15 discarded and 200 μl/well of ice-cold 10% TCA (Trichloroacetic Acid) is added to fix cells. After 60 minutes at 4° C., the TCA is discarded and the plate is rinsed 5 times with water. The plate is then air-dried and 100 μl/well of 0.4% SRB (Sulforhodamine B from Sigma) 20 in 1% Acetic Acid is added to stain cells for 10 minutes at room temperature. The SRB is discarded and the plate is rinsed 5 times with 1% Acetic Acid. After the plate is completely dried, 100 μl/well of 10 mM Tris-base is added to solubilize the dye. After 5 to 10 minutes, the plate is read on a Dynatech ELISA Plate Reader at dual wavelengths at 570 nm and 630 nm. […]

NIH3T3C7 cells = experiment: 3T3/HER2 Cell Growth Assay, 3T3 control cells (beside 3T3 HER-2); details: 96 h; 10% FBS; column beside 3T3 HER-2; 4 days; read-out: Cell Growth Assays, 3T3 10% FBS
Protocol: (§1) The NIH3T3 growth assay, using cell lines capable of expressing HER2, was carried out as follows:
(§2) m. NIH3T3C7 cells in 10% CS+2 mM glutamine DMEM HER2C7 cells in 2% FBS+2 mM glutamine DMEM
(§3) 1. HER2C7 (engineered to express HER2) and NIH3T3C7 (as the control) cells are used for this assay. NIH3T3C7 cells are seeded at 2500 cells/well, […] in 10% CS+2 mM glutamine DMEM, in a 96 well plate; HER2C7 cells are seeded at 6000 cells/well, 100 μl/well in 2% FBS+2 mM glutamine DMEM, in a 96 well plate. Cells are incubated at 37° C., 5% CO2 overnight to allow for cell attachment to the plate;
(§4) 2. The TBST compound is added to the cells at day 2. The compounds are prepared in the appropriate growth medium (10% CS+2 mM) glutamine DMEM for NIH3T3C7 cells; 2% FBS+2 mM glutamine DMEM for HER2C7 cells) in a 96 well plate, and serially diluted. A total of 100 μl/well medium of the diluted compounds is added into the cells. The total volume of each well is 200 μl. Quadruplicates (wells) and 11 concentration points are applied to each compound tested.
(§5) 3. After the cells are treated with the compound for 4 days, the cells are washed with PBS and fixed with 200 μl/well ice-cold 10% TCA for one hour at 0-5° C. condition.
(§6) 4. Remove TCA and rinse wells […] with deionized water. Dry plates upside down with paper towels. […]
7. Read the plate at dual wavelengths at 570 nm and 630 nm on Dynatech Elisa plate reader.

[1] = system: HER2C7 cells (NIH3T3 engineered to express HER2); experiment: 3T3/HER2 Cell Growth Assay, 3T3 HER-2 cells; details: Mus musculus, NIH3T3, 96 h; 2% FBS; 4 days; read-out: Cell Growth Assays, 3T3 HER-2 2% FBS
Protocol: as §1, §2, §3, §4, §5, §6
7. Read the plate at dual wavelengths at 570 nm and 630 nm on Dynatech Elisa plate reader. […]

[2] = system: MCF7 cells overexpressing HER2 kinase (MCF7-HER2); experiment: MCF-7/HER-2 SRB Growth Assay; details: Homo sapiens, MCF7, 96 h; 0.5% FBS; 4 days; read-out: Cell Growth Assays, MCF7 Her-2 0.5% FBS
NIH3T3 c7 cells = experiment: Cell growth assay, 3T3 control cells (beside 3T3 IGF-1R); details: Mus musculus, 10% FBS, column beside 3T3 IGF-1R, read-out: Cell Growth Assays, 3T3 10% FBS
Protocol: (§7) a. The NIH3T3/IGF-1R (10% FBS/2 mM glutamine/DMEM) and NIH3T3 c7 (10% calf serum/2 mM glutamine/DMEM) cell lines were used wherein the NIH3T3 cells (and cells derived from them) were handled such that they were not allowed to become confluent, thus decreasing the likelihood of spontaneous transformation.
(§8) Day 0: Cell Plating--Trypsinize and count NIH3T3/IGF-1R and NIH3T3 c7 cells. Dilute in growth media to 2000 cells/200 μl and seed flat bottom 96-well plates with 200 μl/well, one plate for two compounds for each cell line.
Day 4: Refeed--Repeat steps above, adding exactly the same IGF-1 and compound concentration to each well as before.
Using wells in column 2 (treated with IGF-1 but not compound) as 100%, calculate percent of control for each concentration of compound.
Use a curve fit method to graph percent of control vs. log(molar concentration) and determine the IC50.

NIH3T3/IGF-1R cells = experiment: IGF-I Receptor Growth Assay, 3T3 IGF-1R cells; details: Mus musculus, 0.5% FBS, 10 nM IGF-1, read-out: Cell Growth Assays, 3T3 IGF-1R 0.5% FBS
Protocol: Assay 2: IGF-I Receptor Growth Assay
Materials And Methods. The following materials were used to conduct the IGF-I receptor growth assay:
as §7
Using the above described materials, the following steps were performed under aseptic conditions until fixing the cells for the SRB assay:
as §8
Day 1: Compound Preparation--Add DMSO to each compound to make 100 mM stock solutions.
NIH3T31IGF-1R cells--For each 96-well plate, make 15 ml of 10 nM IGF-1/0.5% FBS/2 mM glutamine/DMEM (30 μl of 5 μM IGF-1/15 ml).
Add 3 μl of 100 mM stock of each compound to a tube so 200 μM final. Shake or vortex until it goes into solution. If it is necessary to add additional medium, note the final concentration.
Do 2-fold dilutions (130 μl) from columns 12 to 3 on each plate (column 2 will be for the untreated control), mixing thoroughly. […]

- IC50 (MCF7 cells): 2000 nM
- IC50 [2]: 800 nM
SMILES: COc1cccc2c1OC(c1ccc(F)cc1)C([N+](=O)[O-])=C2 (stereo not drawn) [Compound A, 2-(4-Fluorophenyl)-8-methoxy-3-nitro-1,2-benzopyran]
- IC50 (NIH3T3C7 cells): 70000 nM
- IC50 [1]: 1800 nM
- IC50 (NIH3T3 c7 cells): 5600 nM
- IC50 (NIH3T3/IGF-1R cells): 2500 nM
